Read-outs that look alike come from different tables or passages of the source.
Legend:
[1] = system: TS-resistant strain of MG; assay type: in vivo, chicken; details: for Infectious index Left air sack + / Infectious index Left air sack ++ / Infectious index Left air sack +++ / Infectious index Left air sack - / Infectious index Right air sack + / Infectious index Right air sack ++ / Infectious index Right air sack +++ / Infectious index Right air sack -: count of fowl; for Infectious index Left air sack + / Infectious index Left air sack ++ / Infectious index Left air sack +++ / Infectious index Left air sack - / Infectious index Right air sack + / Infectious index Right air sack ++ / Infectious index Right air sack +++ / Infectious index Right air sack - / Number of fowl having air sack lesions: 10-days chicken
[2] = system: Mycoplasma hyopneumoniae (Mh) ST-11; experiment: In vitro sensitivity test (liquid dilution method); assay type: cell-based; details: 37°C, 7 days
Description: (§1) Survey of the sensitivity of the compound (I) to various strains of microorganisms was performed by a liquid dilution method […] an agar dilution method, in which the bacteria used were of animal origin and included the following strains (15 strains out of 11 bacteria): Chicken-origin strain: Mycoplasma gallisepticum (MG), Mycoplasma synoviae (MS), Hemophilus paragallinarum (H.pg) and Escherichia coli (E.coli); Pig-origin strain: Mycoplasma hyopneumoniae (Mh), Hemophilus pleuropneumonia (H.pp) and Bordetella bronchiseptica (B.br); Fish-origin strain: Pasteurella piscicida (P.pis) and Streptococcus sp (Str.sp); others: Escherichia coli (E. coli), Salmonella typhimurium (S.typhi) and Staphylococcus aureus (S.au).
(§2) Of these bacteria, the strains belonging to MG, MS and Mh were cultured at 37°C for 7 days by a liquid dilution method, of which the culture medium comprised: 12 % horse-serum added "PPLO" (agar manufactured by Difco) medium for MG; 12 % pig-serum, 0.01 % βNAD (nicotinamide adenine dinucleotide) added Frey medium for MS; 0.5 % lactoalbumin added Hank's solution, 10 % horse-serum, 0.5 % yeast extract (25 %) for Mh, and the agar dilution method was applied to the strains belonging to H.pg, H.pp, S.typhi, E.coli, S.au and B.br. Specifically, the H.pg strain was cultured in a 5 % chicken-serum added chicken bouillon medium and the H.pp strain was cultured in a heart infusion agar added with 10 % sheep defibered blood and 0.05 % βNAD. In case of the H.pg and P.pp strains, observation was made after cultivation at 37°C for 20 hours under 10 % CO₂. Mueller Hinton agar (Difco) was used for the strains belonging to S.typhi, E.coli, S.au and B.br, and observation was made after cultivation at 37°C for 20 to 24 hours. P.pis and Str.sp, both being of fish-origin, were respectively cultured at 25°C for 40 to 48 hours in a 1.5 % NaCl added heart infusion agar and in a sensitive disk medium.

[3] = system: Mycoplasma gallisepticum (MG) T-7-T, TS-resistant strain isolated from the field; experiment: In vitro sensitivity test (liquid dilution method); assay type: cell-based; details: 37°C, 7 days
Description: as §1, §2

[4] = system: Mycoplasma gallisepticum (MG) S6; experiment: In vitro sensitivity test (liquid dilution method); assay type: cell-based; details: 37°C, 7 days
Description: as §1, §2

[5] = system: Staphylococcus aureus (S.au) 209P; experiment: In vitro sensitivity test (agar dilution method); assay type: cell-based; details: 37°C, 20 to 24 hours
Description: as §1, §2

[6] = system: Hemophilus pleuropneumonia (H.pp) M-1; experiment: In vitro sensitivity test (agar dilution method); assay type: cell-based; details: 37°C, 20 hours, 10 % CO₂
Description: as §1, §2

[7] = system: Salmonella typhimurium (S.typhi) 13311; experiment: In vitro sensitivity test (agar dilution method); assay type: cell-based; details: 37°C, 20 to 24 hours
Description: as §1, §2

[8] = system: Bordetella bronchiseptica (B.br) ABU-1; experiment: In vitro sensitivity test (agar dilution method); assay type: cell-based; details: 37°C, 20 to 24 hours
Description: as §1, §2

[9] = system: Hemophilus paragallinarum (H.pg) 221; experiment: In vitro sensitivity test (agar dilution method); assay type: cell-based
Description: as §1, §2

[10] = system: Escherichia coli (E.coli) E-17, chicken-origin strain isolated from the field; experiment: In vitro sensitivity test (agar dilution method); assay type: cell-based; details: 37°C, 20 to 24 hours
Description: as §1, §2

[11] = system: Hemophilus paragallinarum (H.pg) S-1; experiment: In vitro sensitivity test (agar dilution method); assay type: cell-based
Description: as §1, §2

[12] = system: Escherichia coli (E.coli) JC-2; experiment: In vitro sensitivity test (agar dilution method); assay type: cell-based; details: 37°C, 20 to 24 hours
Description: as §1, §2

[13] = system: Pasteurella piscicida (P.pis) No. 2; experiment: In vitro sensitivity test; assay type: cell-based; details: 25°C, 40 to 48 hours
Description: as §1, §2

[14] = system: Streptococcus sp (Str.sp) SNO6119; experiment: In vitro sensitivity test; assay type: cell-based; details: 25°C, 40 to 48 hours
Description: as §1, §2

[15] = oral 3.13 mg/kg, 3.0 x 10³ CFU/fowl
[16] = oral 6.25 mg/kg, 3.0 x 10³ CFU/fowl
[17] = oral 12.5 mg/kg, 3.0 x 10³ CFU/fowl
[18] = agar dilution, 37°C, 20 hours, 10 % CO₂
[19] = oral 3.13 mg/kg, 1.2 x 10³ CFU/fowl
[20] = oral 6.25 mg/kg, 1.2 x 10³ CFU/fowl
[21] = oral 12.5 mg/kg, 1.2 x 10³ CFU/fowl
[22] = oral 25.0 mg/kg, 1.2 x 10³ CFU/fowl

CN[C@@H]1CCC[C@H]2[C@@H]1CCN2c1c(F)cc2c(=O)c(C(=O)O)cn(C3CC3)c2c1F (relative stereo) [I-3]
Infectious index Left air sack + [1, 15]: 0 | Infectious index Left air sack ++ [1, 15]: 1 | Infectious index Left air sack +++ [1, 15]: 0 | Infectious index Left air sack - [1, 15]: 4 | Infectious index Right air sack + [1, 15]: 0 | Infectious index Right air sack ++ [1, 15]: 3 | Infectious index Right air sack +++ [1, 15]: 0 | Infectious index Right air sack - [1, 15]: 2 | Infectious index Left air sack + [1, 16]: 0 | Infectious index Left air sack ++ [1, 16]: 0 | Infectious index Left air sack +++ [1, 16]: 0 | Infectious index Left air sack - [1, 16]: 5 | Infectious index Right air sack + [1, 16]: 2 | Infectious index Right air sack ++ [1, 16]: 3 | Infectious index Right air sack +++ [1, 16]: 0 | Infectious index Right air sack - [1, 16]: 0 | Infectious index Left air sack + [1, 17]: 1 | Infectious index Left air sack ++ [1, 17]: 0 | Infectious index Left air sack +++ [1, 17]: 0 | Infectious index Left air sack - [1, 17]: 4 | Infectious index Right air sack + [1, 17]: 2 | Infectious index Right air sack ++ [1, 17]: 1 | Infectious index Right air sack +++ [1, 17]: 0 | Infectious index Right air sack - [1, 17]: 2 | Number of fowl having air sack lesions [1, 15]: 3 | Number of fowl having air sack lesions [1, 16]: 5 | Number of fowl having air sack lesions [1, 17]: 3 | In vitro Sensitivity Test Mh ST-11 [2]: 0.05 µg/mL | In vitro Sensitivity Test MG T-7-T [3]: 0.05 µg/mL | In vitro Sensitivity Test MG S6 [4]: 0.025 µg/mL | In vitro Sensitivity Test S.au 209P [5]: 0.2 µg/mL | In vitro Sensitivity Test H.pp M-1 [6]: 0.2 µg/mL | In vitro Sensitivity Test S.typhi 13311 [7]: 0.1 µg/mL | In vitro Sensitivity Test B.br ABU-1 [8]: 6.25 µg/mL | In vitro Sensitivity Test H.pg 221 [9]: 1.56 µg/mL | In vitro Sensitivity Test E.coli E-17 [10]: 0.1 µg/ml | In vitro Sensitivity Test H.pg S-1 [11]: 1.56 µg/mL | In vitro Sensitivity Test E.coli JC-2 [12]: 0.1 µg/mL | In vitro Sensitivity Test P.pis No. 2 [13]: 1.56 µg/mL | In vitro Sensitivity Test Str.sp SNO6119 [14]: 0.78 µg/mL

CN[C@H]1CCC[C@H]2CN(c3c(F)cc4c(=O)c(C(=O)O)cn(C5CC5)c4c3F)CC[C@H]21.Cl (relative stereo) [I-7, 1-cyclopropyl-6,8-difluoro-7-[(1R*,6R*,7S*)-7-methylamino-3-azabicyclo[4.4.0]decan-3-yl]-1,4-dihydro-4-oxo-3-quinolinecarboxylic acid hydrochloride]
Infectious index Left air sack + [1, 15]: 0 | Infectious index Left air sack ++ [1, 15]: 0 | Infectious index Left air sack +++ [1, 15]: 0 | Infectious index Left air sack - [1, 15]: 5 | Infectious index Right air sack + [1, 15]: 0 | Infectious index Right air sack ++ [1, 15]: 3 | Infectious index Right air sack +++ [1, 15]: 1 | Infectious index Right air sack - [1, 15]: 1 | Infectious index Left air sack + [1, 16]: 1 | Infectious index Left air sack ++ [1, 16]: 0 | Infectious index Left air sack +++ [1, 16]: 0 | Infectious index Left air sack - [1, 16]: 5 | Infectious index Right air sack + [1, 16]: 1 | Infectious index Right air sack ++ [1, 16]: 3 | Infectious index Right air sack +++ [1, 16]: 1 | Infectious index Right air sack - [1, 16]: 0 | Infectious index Left air sack + [1, 17]: 0 | Infectious index Left air sack ++ [1, 17]: 0 | Infectious index Left air sack +++ [1, 17]: 0 | Infectious index Left air sack - [1, 17]: 5 | Infectious index Right air sack + [1, 17]: 2 | Infectious index Right air sack ++ [1, 17]: 1 | Infectious index Right air sack +++ [1, 17]: 2 | Infectious index Right air sack - [1, 17]: 0 | Number of fowl having air sack lesions [1, 15]: 4 | Number of fowl having air sack lesions [1, 16]: 5 | Number of fowl having air sack lesions [1, 17]: 5 | In vitro Sensitivity Test Mh ST-11 [2]: 0.1 µg/mL | In vitro Sensitivity Test MG T-7-T [3]: 0.2 µg/mL | In vitro Sensitivity Test MG S6 [4]: 0.05 µg/mL | In vitro Sensitivity Test S.au 209P [5]: 0.78 µg/mL | In vitro Sensitivity Test H.pp M-1 [6]: 0.78 µg/mL | In vitro Sensitivity Test S.typhi 13311 [7]: 0.2 µg/mL | In vitro Sensitivity Test B.br ABU-1 [8]: 6.25 µg/mL | In vitro Sensitivity Test H.pg 221 [9, 18]: >3.13 µg/mL | In vitro Sensitivity Test E.coli E-17 [10]: 0.39 µg/ml | In vitro Sensitivity Test H.pg S-1 [11, 18]: >3.13 µg/mL | In vitro Sensitivity Test E.coli JC-2 [12]: 0.39 µg/mL | In vitro Sensitivity Test P.pis No. 2 [13]: 6.25 µg/mL | In vitro Sensitivity Test Str.sp SNO6119 [14]: 3.13 µg/mL

CNC[C@@]12CCC[C@@H]1CN(c1cc3c(cc1F)c(=O)c(C(=O)O)cn3C1CC1)C2 (relative stereo) [I-1, 7-[(1R*,5S*)-1-methylaminomethyl-3-azabicyclo[3.3.0]octan-3-yl]-1-cyclopropyl-6-fluoro-1,4-dihydro-4-oxo-3-quinolinecarboxylic acid]
Infectious index Left air sack + [1, 19]: 1 | Infectious index Left air sack ++ [1, 19]: 0 | Infectious index Left air sack +++ [1, 19]: 0 | Infectious index Left air sack - [1, 19]: 4 | Infectious index Right air sack + [1, 19]: 1 | Infectious index Right air sack ++ [1, 19]: 3 | Infectious index Right air sack +++ [1, 19]: 1 | Infectious index Right air sack - [1, 19]: 0 | Infectious index Left air sack + [1, 20]: 0 | Infectious index Left air sack ++ [1, 20]: 0 | Infectious index Left air sack +++ [1, 20]: 0 | Infectious index Left air sack - [1, 20]: 5 | Infectious index Right air sack + [1, 20]: 3 | Infectious index Right air sack ++ [1, 20]: 1 | Infectious index Right air sack +++ [1, 20]: 0 | Infectious index Right air sack - [1, 20]: 1 | Infectious index Left air sack + [1, 21]: 0 | Infectious index Left air sack ++ [1, 21]: 0 | Infectious index Left air sack +++ [1, 21]: 0 | Infectious index Left air sack - [1, 21]: 5 | Infectious index Right air sack + [1, 21]: 0 | Infectious index Right air sack ++ [1, 21]: 1 | Infectious index Right air sack +++ [1, 21]: 0 | Infectious index Right air sack - [1, 21]: 4 | Infectious index Left air sack + [1, 22]: 0 | Infectious index Left air sack ++ [1, 22]: 0 | Infectious index Left air sack +++ [1, 22]: 0 | Infectious index Left air sack - [1, 22]: 5 | Infectious index Right air sack + [1, 22]: 0 | Infectious index Right air sack ++ [1, 22]: 0 | Infectious index Right air sack +++ [1, 22]: 0 | Infectious index Right air sack - [1, 22]: 5 | antimicrobial activity compared with ERFX ([1]; in vivo, po): nearly equal potency to ERFX | Number of fowl having air sack lesions [1, 19]: 5 | Number of fowl having air sack lesions [1, 20]: 4 | Number of fowl having air sack lesions [1, 21]: 1 | Number of fowl having air sack lesions [1, 22]: 0 | In vitro Sensitivity Test MG T-7-T [3]: 0.025 µg/mL | In vitro Sensitivity Test MG S6 [4]: 0.0125 µg/mL | In vitro Sensitivity Test S.au 209P [5]: 0.025 µg/mL | In vitro Sensitivity Test H.pp M-1 [6]: 0.39 µg/mL | In vitro Sensitivity Test S.typhi 13311 [7]: 0.2 µg/mL | In vitro Sensitivity Test B.br ABU-1 [8]: 12.5 µg/mL | In vitro Sensitivity Test H.pg 221 [9, 18]: 0.78 µg/mL | In vitro Sensitivity Test E.coli E-17 [10]: 0.2 µg/ml | In vitro Sensitivity Test H.pg S-1 [11, 18]: 0.78 µg/mL | In vitro Sensitivity Test E.coli JC-2 [12]: 0.2 µg/mL | In vitro Sensitivity Test P.pis No. 2 [13]: 0.78 µg/mL | In vitro Sensitivity Test Str.sp SNO6119 [14]: 0.78 µg/mL

Source: EP0429304A2, “Pyridone-carboxylic acid derivatives and their use as veterinary medicines” (SHIONOGI SEIYAKU KABUSHIKI KAISHA trading under the name of …, priority 1989, dated 1991)
